Measured values as given in ChEMBL document CHEMBL1201862, “PubChem BioAssay data set” (2004).
Active and inactive are the calls of the source.

How the values were obtained:
[1] = target: Nucleotide-binding oligomerization domain-containing protein 2 (Homo sapiens, UniProt Q9HC29); assay: NOD2 signaling inhibitors, cell-based, luminescence, uHTS, HEK293 (AID 1566); format: functional
[2] = HepG2 cell cytotoxicity, dose response, cytotoxicity control for Shn3 inhibitor project, CellTiter-Glo, cherry-picked (AID 624134); format: functional, cell-based
[3] = NIH-3T3 fibroblast cytotoxicity, dose response, cytotoxicity control for antifungal single agent project, cell-based, Alamar Blue, dry powder (AID 602188); format: functional
HEK293 [4] = assay: NOD2 signaling inhibitors in MDP-stimulated cells, cell-based, uHTS, luminescence (AID 2001); format: functional; conditions: Homo sapiens
[5] = target: T1, Kappa-type opioid receptor (Homo sapiens, UniProt P41145); format: functional
T1 sequence (P41145 whole entry): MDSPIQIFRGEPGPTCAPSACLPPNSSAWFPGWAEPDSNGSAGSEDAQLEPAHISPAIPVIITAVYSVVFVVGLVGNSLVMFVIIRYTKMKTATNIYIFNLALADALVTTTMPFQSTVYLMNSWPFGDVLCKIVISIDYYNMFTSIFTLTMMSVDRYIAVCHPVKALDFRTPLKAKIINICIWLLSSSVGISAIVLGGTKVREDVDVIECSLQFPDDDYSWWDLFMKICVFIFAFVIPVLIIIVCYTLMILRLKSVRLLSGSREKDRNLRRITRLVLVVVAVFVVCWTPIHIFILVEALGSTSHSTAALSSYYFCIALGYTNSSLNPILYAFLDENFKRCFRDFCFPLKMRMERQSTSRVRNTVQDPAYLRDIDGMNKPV

[6] = cytotoxicity in HEK-293T cells, dose response, cytotoxicity control for TCR NF-kB inhibitor project, luminescence, T-cell screen hits (AID 489026); format: functional, cell-based;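 further: cells exposed to compound about 14 hours before the viability readout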
[7] = target: T2, Heat shock factor protein 1 (Mus musculus, UniProt P38532); assay: HSF1 potentiators in luciferase reporter cells, confirmation, cell-based, NIH3T3, luminescence, dose retest (AID 435004); format: functional;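 further: stress induced by proteasome inhibitor MG132 added 30 min after compound; luciferase reporter driven by HSF1 response element in NIH3T3 cells; actives raise luminescence as potentiators of the MG132 stress response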
T2 sequence (P38532 whole entry): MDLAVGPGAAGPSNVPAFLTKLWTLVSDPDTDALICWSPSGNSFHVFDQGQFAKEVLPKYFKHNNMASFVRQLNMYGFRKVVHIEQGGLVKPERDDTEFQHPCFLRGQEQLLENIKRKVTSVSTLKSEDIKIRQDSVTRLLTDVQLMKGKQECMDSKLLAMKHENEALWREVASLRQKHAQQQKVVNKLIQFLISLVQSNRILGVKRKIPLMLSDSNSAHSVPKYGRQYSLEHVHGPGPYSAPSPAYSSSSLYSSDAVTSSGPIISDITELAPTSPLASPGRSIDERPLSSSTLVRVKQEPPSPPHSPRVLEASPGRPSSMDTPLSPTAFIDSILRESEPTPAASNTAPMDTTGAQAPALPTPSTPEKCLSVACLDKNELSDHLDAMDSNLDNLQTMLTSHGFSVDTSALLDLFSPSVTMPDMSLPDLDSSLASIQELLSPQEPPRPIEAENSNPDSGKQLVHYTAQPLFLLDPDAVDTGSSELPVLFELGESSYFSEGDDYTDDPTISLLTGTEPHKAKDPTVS

HEK293 [8] = assay: cells; format: functional, cell-based; conditions: Homo sapiens
[9] = control 3'UTR Renilla luciferase suppression, dose response, counter-screen for Shn3 inhibitor project, cell-based, Clone20-Shn3RL, cherry-picked (AID 624133); format: functional
HEK293 [10] = assay: NOD1 signaling inhibitors, primary screen, cell-based, luminescence, uHTS (AID 1578); format: functional; conditions: Homo sapiens
HEK293 [11] = assay: inhibitors of LMP1-driven NF-kB reporter, dose response, cell-based, HEK293, luciferase, cherry-pick (AID 588343); format: functional; conditions: Homo sapiens
HEK293 [12] = assay: cells; format: functional, cell-based; conditions: Homo sapiens; remark: listed apart in the source
[13] = cytotoxicity toward NIH3T3 fibroblasts, dose response, counter-screen, cell-based, ATP luminescence, mouse fibroblasts (AID 2010); format: functional;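 further: cells exposed to compound for about 90 hours before reading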
INS1 = assay: beta cell apoptosis inhibitors, cytokine rescue, dose response, luminescence, retest (AID 449756); format: functional, cell-based; conditions: Rattus norvegicus;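 further: cell death triggered by IL-1 beta plus TNF-alpha plus IFN-gamma mixture; protective hits raise ATP signal compared with cytokine alone wells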
[14] = inhibitors of intracellular T. cruzi replication, confirmation, NIH3T3 host cells, beta-gal luminescence (AID 2044); format: functional, cell-based;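 further: intracellular parasites grown in NIH/3T3 mouse fibroblasts as host cells; luminescent beta-galactosidase reporter signal from transgenic T. cruzi replicating inside host cells; inhibitors lower the luminescence signal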
HEK293 [15] = assay: cells; format: functional, cell-based; conditions: Homo sapiens; remark: listed apart in the source
[16] = target: T1, Kappa-type opioid receptor; format: functional; remark: listed apart in the source
[17] = Shn3 3'UTR reporter inhibitors, dose response, cell-based, Clone20 osteoblasts, firefly luciferase, cherry-picked (AID 624132); format: functional;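 further: firefly luciferase luminescence from reporter carrying the Shn3 3'UTR in osteoblasts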
Beta-galactosidase = Beta-galactosidase (Escherichia coli, UniProt Q8VNN2); format: functional
Sequence of Beta-galactosidase (Q8VNN2 whole entry): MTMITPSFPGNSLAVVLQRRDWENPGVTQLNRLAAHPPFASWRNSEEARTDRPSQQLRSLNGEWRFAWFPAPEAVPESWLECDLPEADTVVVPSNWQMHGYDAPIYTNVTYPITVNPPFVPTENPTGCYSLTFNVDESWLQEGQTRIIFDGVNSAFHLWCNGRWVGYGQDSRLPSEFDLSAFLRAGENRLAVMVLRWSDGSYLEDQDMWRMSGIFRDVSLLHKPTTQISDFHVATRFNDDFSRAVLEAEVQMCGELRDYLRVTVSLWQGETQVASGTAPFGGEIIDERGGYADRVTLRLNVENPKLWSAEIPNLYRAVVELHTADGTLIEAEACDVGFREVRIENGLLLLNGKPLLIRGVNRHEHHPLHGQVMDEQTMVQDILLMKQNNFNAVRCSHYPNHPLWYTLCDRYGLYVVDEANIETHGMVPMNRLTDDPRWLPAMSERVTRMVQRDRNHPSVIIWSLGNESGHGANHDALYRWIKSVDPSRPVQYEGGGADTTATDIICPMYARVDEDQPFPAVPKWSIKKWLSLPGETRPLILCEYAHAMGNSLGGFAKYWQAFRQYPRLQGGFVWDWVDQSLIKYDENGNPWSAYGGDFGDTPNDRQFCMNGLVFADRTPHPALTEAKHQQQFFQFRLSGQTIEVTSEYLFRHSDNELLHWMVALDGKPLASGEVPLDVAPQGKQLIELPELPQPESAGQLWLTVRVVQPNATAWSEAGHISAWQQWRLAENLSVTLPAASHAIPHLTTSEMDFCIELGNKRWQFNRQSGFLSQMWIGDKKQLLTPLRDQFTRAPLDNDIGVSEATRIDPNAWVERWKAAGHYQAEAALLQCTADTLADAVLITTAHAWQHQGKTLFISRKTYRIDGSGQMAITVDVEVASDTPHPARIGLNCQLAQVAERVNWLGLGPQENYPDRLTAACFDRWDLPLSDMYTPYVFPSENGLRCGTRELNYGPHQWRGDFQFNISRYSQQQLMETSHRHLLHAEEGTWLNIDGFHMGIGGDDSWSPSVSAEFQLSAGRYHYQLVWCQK

[18] = target: Benomyl/methotrexate resistance protein (Candida albicans, UniProt P28873); assay: CaMdr1 efflux pump inhibitor potency, dose response, singleplex, Cherry Pick1 hits (AID 588608); format: functional
Sequence of Benomyl/methotrexate resistance protein (P28873 whole entry): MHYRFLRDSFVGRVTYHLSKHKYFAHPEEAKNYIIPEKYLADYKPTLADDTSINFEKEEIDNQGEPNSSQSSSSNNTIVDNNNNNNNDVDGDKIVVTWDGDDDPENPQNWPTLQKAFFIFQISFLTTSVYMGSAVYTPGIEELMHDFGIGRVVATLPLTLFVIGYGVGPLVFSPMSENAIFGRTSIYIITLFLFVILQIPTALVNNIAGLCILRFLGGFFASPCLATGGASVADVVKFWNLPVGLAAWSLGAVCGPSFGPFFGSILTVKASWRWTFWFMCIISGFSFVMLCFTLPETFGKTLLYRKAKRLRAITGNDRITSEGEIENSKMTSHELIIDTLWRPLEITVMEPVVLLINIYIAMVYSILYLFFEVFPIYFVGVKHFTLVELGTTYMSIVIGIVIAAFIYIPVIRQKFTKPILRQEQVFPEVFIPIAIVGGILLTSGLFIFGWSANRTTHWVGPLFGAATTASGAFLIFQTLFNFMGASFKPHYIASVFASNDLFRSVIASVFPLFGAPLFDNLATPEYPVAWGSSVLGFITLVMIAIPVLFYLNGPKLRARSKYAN

[19] = inhibitors of SNCA 5'UTR-driven reporter translation, confirmation, H4 neuroglioma cells, luminescence (AID 1988); format: functional, cell-based
[20] = target: T3, DNA repair protein RAD52 homolog (Homo sapiens, UniProt P43351); format: functional, biochemical
T3 sequence (P43351 whole entry): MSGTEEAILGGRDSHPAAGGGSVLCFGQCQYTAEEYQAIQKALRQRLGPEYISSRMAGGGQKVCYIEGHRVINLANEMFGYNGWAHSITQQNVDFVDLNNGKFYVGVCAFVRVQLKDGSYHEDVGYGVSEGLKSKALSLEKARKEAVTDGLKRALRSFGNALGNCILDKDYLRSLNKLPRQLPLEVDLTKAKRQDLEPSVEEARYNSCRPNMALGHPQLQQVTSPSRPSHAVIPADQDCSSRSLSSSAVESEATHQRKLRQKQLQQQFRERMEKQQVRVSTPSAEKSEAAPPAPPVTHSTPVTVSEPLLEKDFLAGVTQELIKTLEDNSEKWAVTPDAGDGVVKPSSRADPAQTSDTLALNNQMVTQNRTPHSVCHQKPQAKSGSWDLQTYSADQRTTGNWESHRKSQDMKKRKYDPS

[21] = target: 26S proteasome non-ATPase regulatory subunit 14 (Homo sapiens, UniProt O00487); assay: inhibition of proteasome subunit RPN11 – biochemical, fluorescence polarization, uHTS hits, confirmation (AID 602368); format: functional
Sequence of 26S proteasome non-ATPase regulatory subunit 14 (O00487 whole entry): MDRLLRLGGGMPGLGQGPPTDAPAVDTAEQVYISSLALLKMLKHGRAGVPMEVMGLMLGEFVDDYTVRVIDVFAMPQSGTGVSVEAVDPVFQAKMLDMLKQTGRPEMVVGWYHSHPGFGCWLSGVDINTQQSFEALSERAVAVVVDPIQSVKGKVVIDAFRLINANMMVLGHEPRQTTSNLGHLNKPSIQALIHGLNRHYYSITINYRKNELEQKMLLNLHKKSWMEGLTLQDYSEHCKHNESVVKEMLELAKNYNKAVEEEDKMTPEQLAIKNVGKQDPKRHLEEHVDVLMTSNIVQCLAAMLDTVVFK

[22] = target: Heat shock protein HSP 90-alpha (Homo sapiens, UniProt P07900); format: functional, organism-based
[23] = inhibitors of firefly luciferase expression or activity, dose response, H4 neuroglioma cells, luminescence (AID 1990); format: functional, cell-based
[24] = target: T4, Ubiquitin-conjugating enzyme E2 N (Homo sapiens, UniProt P61088); format: functional
T4 sequence (P61088 whole entry): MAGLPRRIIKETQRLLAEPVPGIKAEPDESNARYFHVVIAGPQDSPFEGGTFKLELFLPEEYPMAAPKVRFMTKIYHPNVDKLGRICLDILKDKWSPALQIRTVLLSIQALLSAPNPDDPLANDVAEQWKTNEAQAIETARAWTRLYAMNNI

[25] = target: 72 kDa type IV collagenase (Homo sapiens, UniProt P08253); assay: Dose Response validation of uHTS RPN11 inhibitor hits using a MMP-2 Fluorescence assay.; format: functional
Sequence of 72 kDa type IV collagenase (P08253 whole entry): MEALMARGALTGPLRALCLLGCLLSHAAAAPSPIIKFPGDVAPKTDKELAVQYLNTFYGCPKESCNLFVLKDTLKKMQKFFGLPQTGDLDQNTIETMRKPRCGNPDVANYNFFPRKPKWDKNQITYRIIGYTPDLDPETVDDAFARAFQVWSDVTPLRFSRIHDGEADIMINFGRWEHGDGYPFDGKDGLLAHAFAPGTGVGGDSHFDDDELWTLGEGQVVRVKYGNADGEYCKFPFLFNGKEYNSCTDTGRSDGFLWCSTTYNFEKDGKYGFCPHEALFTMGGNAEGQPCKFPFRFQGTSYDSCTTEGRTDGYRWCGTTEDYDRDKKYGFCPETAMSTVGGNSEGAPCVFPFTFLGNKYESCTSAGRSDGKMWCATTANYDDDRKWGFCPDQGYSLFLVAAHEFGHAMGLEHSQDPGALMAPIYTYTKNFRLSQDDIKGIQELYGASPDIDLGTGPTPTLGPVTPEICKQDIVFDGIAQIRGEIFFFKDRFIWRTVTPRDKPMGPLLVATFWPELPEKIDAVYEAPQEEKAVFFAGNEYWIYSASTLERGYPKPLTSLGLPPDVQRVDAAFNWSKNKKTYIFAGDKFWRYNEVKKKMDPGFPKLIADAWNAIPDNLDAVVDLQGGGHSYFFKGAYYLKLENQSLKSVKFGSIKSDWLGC

Bcl-2-related protein A1 = target: T5, Bcl-2-related protein A1 (Mus musculus, UniProt Q07440); format: functional;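 further: confirmatory dose–response counterscreen on Bfl-1, used to check hits from a UBC13 polyubiquitin inhibitor campaign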
T5 sequence (Q07440 whole entry): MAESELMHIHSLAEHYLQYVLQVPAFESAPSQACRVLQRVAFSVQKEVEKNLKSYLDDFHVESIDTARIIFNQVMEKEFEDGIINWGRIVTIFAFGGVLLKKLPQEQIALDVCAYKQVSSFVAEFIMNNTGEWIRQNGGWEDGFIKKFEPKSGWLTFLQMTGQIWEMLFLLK

Prothrombin = Prothrombin (Bos taurus, UniProt P00735); assay: thrombin inhibition, dose response, biochemical, fluorescence polarization, uHTS hits (AID 602369); format: functional
[26] = target: T6, Apoptotic protease-activating factor 1 (Homo sapiens, UniProt O14727); format: functional
T6 sequence (O14727 whole entry): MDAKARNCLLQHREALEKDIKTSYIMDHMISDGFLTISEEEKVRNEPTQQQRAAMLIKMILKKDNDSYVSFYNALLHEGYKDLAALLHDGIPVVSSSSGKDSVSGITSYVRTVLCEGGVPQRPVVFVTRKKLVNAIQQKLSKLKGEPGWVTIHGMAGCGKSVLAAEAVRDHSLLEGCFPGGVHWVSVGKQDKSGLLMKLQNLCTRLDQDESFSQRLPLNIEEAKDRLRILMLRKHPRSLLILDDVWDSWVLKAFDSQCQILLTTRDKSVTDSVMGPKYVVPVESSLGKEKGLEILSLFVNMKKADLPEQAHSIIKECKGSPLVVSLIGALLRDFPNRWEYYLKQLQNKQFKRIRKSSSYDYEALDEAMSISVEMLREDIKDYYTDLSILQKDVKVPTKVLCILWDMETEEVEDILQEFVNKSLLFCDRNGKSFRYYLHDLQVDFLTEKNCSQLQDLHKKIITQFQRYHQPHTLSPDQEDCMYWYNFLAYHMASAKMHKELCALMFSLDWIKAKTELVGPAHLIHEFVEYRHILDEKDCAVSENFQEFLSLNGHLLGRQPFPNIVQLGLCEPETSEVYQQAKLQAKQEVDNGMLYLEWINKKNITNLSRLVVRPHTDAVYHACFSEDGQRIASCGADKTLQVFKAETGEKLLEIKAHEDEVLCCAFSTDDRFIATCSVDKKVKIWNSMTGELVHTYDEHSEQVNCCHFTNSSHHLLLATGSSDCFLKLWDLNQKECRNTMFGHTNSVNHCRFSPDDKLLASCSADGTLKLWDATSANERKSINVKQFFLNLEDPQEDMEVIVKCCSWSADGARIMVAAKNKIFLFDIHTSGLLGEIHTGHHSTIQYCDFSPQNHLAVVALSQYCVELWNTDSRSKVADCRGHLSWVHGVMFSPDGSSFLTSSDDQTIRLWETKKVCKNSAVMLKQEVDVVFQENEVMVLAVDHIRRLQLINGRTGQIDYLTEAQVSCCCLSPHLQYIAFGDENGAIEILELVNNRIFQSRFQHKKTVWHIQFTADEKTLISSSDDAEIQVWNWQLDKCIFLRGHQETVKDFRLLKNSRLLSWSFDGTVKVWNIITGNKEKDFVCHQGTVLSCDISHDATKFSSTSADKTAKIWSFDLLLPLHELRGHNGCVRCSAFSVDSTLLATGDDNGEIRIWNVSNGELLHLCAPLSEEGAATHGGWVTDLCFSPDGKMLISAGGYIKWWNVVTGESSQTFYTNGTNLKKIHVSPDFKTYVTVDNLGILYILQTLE

[27] = target: T4, Ubiquitin-conjugating enzyme E2 N; format: functional; remark: listed apart in the source
[28] = target: T7, Neuropeptides B/W receptor type 1 (Homo sapiens, UniProt P48145); assay: GPR7 antagonist potency, late-stage follow-up, cell-based, fluorescence, dose response, set 5 (AID 588566); format: functional
T7 sequence (P48145 whole entry): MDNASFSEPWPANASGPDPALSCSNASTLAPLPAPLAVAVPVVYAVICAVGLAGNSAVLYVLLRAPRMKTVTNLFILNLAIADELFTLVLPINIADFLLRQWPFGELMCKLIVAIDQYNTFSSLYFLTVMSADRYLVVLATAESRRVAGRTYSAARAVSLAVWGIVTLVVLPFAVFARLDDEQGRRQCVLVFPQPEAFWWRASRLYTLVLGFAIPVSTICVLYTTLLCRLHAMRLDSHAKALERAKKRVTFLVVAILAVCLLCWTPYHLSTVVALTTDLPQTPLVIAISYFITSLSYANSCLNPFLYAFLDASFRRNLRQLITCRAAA

[29] = target: Melanin-concentrating hormone receptor 1 (Homo sapiens, UniProt Q99705); assay: Late-stage fluorescence-based counterscreen for antagonists of the G-protein coupled receptor 7 (GPR7): cell-based dose response assay to identify antagonists of the melanin-concentrating hormone receptor 1 (MCHR1) Set 5.; format: functional
Sequence of Melanin-concentrating hormone receptor 1 (Q99705 whole entry): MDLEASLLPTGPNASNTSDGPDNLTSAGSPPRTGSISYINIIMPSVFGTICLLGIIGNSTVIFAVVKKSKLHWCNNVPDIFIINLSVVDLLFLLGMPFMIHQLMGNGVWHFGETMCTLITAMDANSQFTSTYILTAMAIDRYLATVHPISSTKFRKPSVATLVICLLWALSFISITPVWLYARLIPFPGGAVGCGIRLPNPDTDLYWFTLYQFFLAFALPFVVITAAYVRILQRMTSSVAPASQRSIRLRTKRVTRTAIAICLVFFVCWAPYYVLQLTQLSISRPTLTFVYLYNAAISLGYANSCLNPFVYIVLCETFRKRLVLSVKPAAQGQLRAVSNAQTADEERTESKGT

Sequence of Nucleotide-binding oligomerization domain-containing protein 2 (Q9HC29 whole entry, the tested form may be a part): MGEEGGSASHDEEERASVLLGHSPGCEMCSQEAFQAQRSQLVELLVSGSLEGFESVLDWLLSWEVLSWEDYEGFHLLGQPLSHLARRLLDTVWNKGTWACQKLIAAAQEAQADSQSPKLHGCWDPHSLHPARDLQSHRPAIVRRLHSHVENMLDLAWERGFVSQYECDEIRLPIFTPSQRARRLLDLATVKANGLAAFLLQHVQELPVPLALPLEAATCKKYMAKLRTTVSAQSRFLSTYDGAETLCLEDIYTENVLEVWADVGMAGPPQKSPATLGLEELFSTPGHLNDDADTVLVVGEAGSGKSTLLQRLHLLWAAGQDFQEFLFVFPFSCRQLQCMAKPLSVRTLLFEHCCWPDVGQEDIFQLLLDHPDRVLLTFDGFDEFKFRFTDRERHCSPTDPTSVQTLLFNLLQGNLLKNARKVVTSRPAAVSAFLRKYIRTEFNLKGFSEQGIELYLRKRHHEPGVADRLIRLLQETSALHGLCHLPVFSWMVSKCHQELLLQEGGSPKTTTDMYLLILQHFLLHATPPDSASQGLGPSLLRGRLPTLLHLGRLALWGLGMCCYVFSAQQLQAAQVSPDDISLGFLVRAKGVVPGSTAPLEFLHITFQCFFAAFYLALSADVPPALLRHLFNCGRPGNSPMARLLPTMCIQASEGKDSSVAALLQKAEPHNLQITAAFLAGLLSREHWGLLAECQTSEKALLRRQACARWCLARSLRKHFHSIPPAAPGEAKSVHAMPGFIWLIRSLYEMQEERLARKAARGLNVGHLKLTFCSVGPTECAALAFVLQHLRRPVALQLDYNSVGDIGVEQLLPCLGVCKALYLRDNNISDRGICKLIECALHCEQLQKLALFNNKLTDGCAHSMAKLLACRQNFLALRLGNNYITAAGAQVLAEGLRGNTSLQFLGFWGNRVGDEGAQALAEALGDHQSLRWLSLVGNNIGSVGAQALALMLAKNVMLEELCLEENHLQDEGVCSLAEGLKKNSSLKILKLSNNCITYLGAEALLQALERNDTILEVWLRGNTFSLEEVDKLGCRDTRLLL

O=C(Nc1nc(-c2ccccn2)cs1)c1ccc(Cl)s1
active: AC50 [2] 47.5 µM | AC50 [3] 0.949 µM | IC50 (HEK293 [4]) 4.18 µM | AC50 [9] 0.74 µM | EC50 (HEK293 [10]) 7.06 µM | AC50 (HEK293 [11]) 0.515 µM | IC50 (HEK293 [12]) 8.39 µM | EC50 [13] 0.506 µM | AC50 (INS1) 0.759 µM | EC50 [14] 0.279 µM | AC50 [17] 0.817 µM
inactive: EC50 [1] > 20 µM | IC50 [6] 36.8 µM | IC50 (HEK293 [8]) > 20 µM | IC50 (HEK293 [15]) > 20 µM | IC50 [16] > 31.5 µM | EC50 (Beta-galactosidase) > 31.5 µM
inconclusive: EC50 [7] 2.06 µM
> 32 µM: IC50 [5]

Nc1c(Cl)cc(C2=NCCn3nc4ccccc4c32)cc1Cl
active: EC50 [18] 3.99 µM

CCCCCCCCCCOC(=O)Cn1c(COc2ccc(Cl)cc2)[n+](C)c2ccccc21
active: AC50 [20] 7.08 µM | IC50 [21] 19.1 µM | AC50 [22] 7.94 µM | EC50 [23] 12.9 µM | IC50 [24] 6.71 µM | IC50 (Bcl-2-related protein A1) 10.1 µM | IC50 (Prothrombin) 44.6 µM | IC50 [26] 8.57 µM | IC50 [27] 6.53 µM
> 120 µM (not active): EC50 [19]
inactive: IC50 [25] > 100 µM

COc1ccc(Oc2c(Cl)cnn(CC(=O)OC(C)(C)C)c2=O)cc1
inactive: IC50 [28] 14 µM | IC50 [29] ~19.9 µM

CCOc1ccc(Oc2c(SC)cnn(Cc3cccc4ccccc34)c2=O)cc1
inactive: IC50 [28] > 20 µM | IC50 [29] 19.6 µM
